Reference: the supplement of paper PMC10307832

What was measured:
Test in all cases: relative viability (nuclei count vs DMSO), 5 days (fraction); higher = more cells survive
[1] = tested on: A-427
How it was run: (§1)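 Lung cancer cell lines in 1536-well plates were dosed by pin tool the day after seeding, either with one drug alone or with a fixed anchor-drug dose plus five library-drug doses (not always all listed) in √10 steps. After 5 days, cells were fixed and their nuclei stained in one step (final 0.05% Triton X-100, 1% formaldehyde, 1 ug/ml Hoechst), then counted on 4× images. Relative viability is the nuclei count in treated wells divided by that in vehicle wells. Values are medians of duplicate plates.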

[2] = tested on: NCI-H1650
How it was run: as §1

[3] = tested on: NCI-H596
How it was run: as §1

[4] = tested on: NCI-H2085
How it was run: as §1

[5] = tested on: NCI-H520
How it was run: as §1

[6] = tested on: SW 1573
How it was run: as §1

[7] = tested on: H3255
How it was run: as §1

[8] = tested on: NCI-H460
How it was run: as §1

[9] = tested on: NCI-H1755
How it was run: as §1

[10] = tested on: NCI-H2228
How it was run: as §1

[11] = tested on: NCI-H1355
How it was run: as §1

[12] = tested on: EKVX
How it was run: as §1

[13] = tested on: NCI-H838
How it was run: as §1

[14] = tested on: LK-2
How it was run: as §1

[15] = tested on: NCI-H322M
How it was run: as §1

[16] = tested on: NCI-H650
How it was run: as §1

[17] = tested on: NCI-H1944
How it was run: as §1

[18] = tested on: NCI-H441
How it was run: as §1

[19] = tested on: ChaGo-K-1
How it was run: as §1

[20] = tested on: NCI-H1666
How it was run: as §1

[21] = tested on: NCI-H358
How it was run: as §1

[22] = tested on: NCI-H3122
How it was run: as §1

[23] = tested on: NCI-H2347
How it was run: as §1

Compound O=c1[nH]c2ccccc2n1C1CCN(CCCC(c2ccc(F)cc2)c2ccc(F)cc2)CC1 [Pimozide] + CS(=O)(=O)N1CCN(Cc2cc3nc(-c4cccc5[nH]ncc45)nc(N4CCOCC4)c3s2)CC1 [Pictilisib] (partner 1 µM) has a relative viability ([1]; first compound 0.08 µM) of 0.723, a relative viability ([1]; first compound 0.253 µM) of 0.729 and a relative viability ([1]; first compound 0.8 µM) of 0.538. For the same compound, the relative viability ([1]; first compound 2.53 µM) was 0.68, the relative viability ([1]; first compound 8 µM) was 0.668 and the relative viability ([2]; first compound 0.08 µM) was 0.589. For the same compound, the relative viability ([2]; first compound 0.253 µM) was 0.489, the relative viability ([2]; first compound 0.8 µM) was 0.461 and the relative viability ([2]; first compound 2.53 µM) was 0.547. It also gave a relative viability ([2]; first compound 8 µM) of 0.182, a relative viability ([3]; first compound 0.08 µM) of 0.414 and a relative viability ([3]; first compound 0.253 µM) of 0.488. The relative viability ([3]; first compound 0.8 µM) was 0.251, the relative viability ([3]; first compound 2.53 µM) was 0.356 and the relative viability ([3]; first compound 8 µM) was 0.344. For the same compound, the relative viability ([4]; first compound 0.08 µM) was 0.446, the relative viability ([4]; first compound 0.253 µM) was 0.532 and the relative viability ([4]; first compound 0.8 µM) was 0.525. The relative viability ([4]; first compound 2.53 µM) was 0.486, the relative viability ([4]; first compound 8 µM) was 0.415 and the relative viability ([5]; first compound 0.08 µM) was 0.294. It also gave a relative viability ([5]; first compound 0.253 µM) of 0.337, a relative viability ([5]; first compound 0.8 µM) of 0.248 and a relative viability ([5]; first compound 2.53 µM) of 0.256. It also gave a relative viability ([5]; first compound 8 µM) of 0.259, a relative viability ([6]; first compound 0.08 µM) of 0.534 and a relative viability ([6]; first compound 0.253 µM) of 0.462. It also gave a relative viability ([6]; first compound 0.8 µM) of 0.47, a relative viability ([6]; first compound 2.53 µM) of 0.449 and a relative viability ([6]; first compound 8 µM) of 0.416. It also gave a relative viability ([7]; first compound 0.253 µM) of 0.406, a relative viability ([7]; first compound 0.8 µM) of 0.575 and a relative viability ([7]; first compound 2.53 µM) of 0.456. It also gave a relative viability ([7]; first compound 8 µM) of 0.506, a relative viability ([8]; first compound 0.08 µM) of 0.236 and a relative viability ([8]; first compound 0.253 µM) of 0.385. For the same compound, the relative viability ([8]; first compound 0.8 µM) was 0.386, the relative viability ([8]; first compound 2.53 µM) was 0.353 and the relative viability ([8]; first compound 8 µM) was 0.366. For the same compound, the relative viability ([9]; first compound 0.08 µM) was 0.438, the relative viability ([9]; first compound 0.253 µM) was 0.441 and the relative viability ([9]; first compound 0.8 µM) was 0.418. The relative viability ([9]; first compound 2.53 µM) was 0.368, the relative viability ([9]; first compound 8 µM) was 0.307 and the relative viability ([10]; first compound 0.08 µM) was 0.378. For the same compound, the relative viability ([10]; first compound 0.253 µM) was 0.386, the relative viability ([10]; first compound 0.8 µM) was 0.312 and the relative viability ([10]; first compound 2.53 µM) was 0.34. For the same compound, the relative viability ([10]; first compound 8 µM) was 0.29, the relative viability ([11]; first compound 0.08 µM) was 0.371 and the relative viability ([11]; first compound 0.253 µM) was 0.417. For the same compound, the relative viability ([11]; first compound 0.8 µM) was 0.436, the relative viability ([11]; first compound 2.53 µM) was 0.466 and the relative viability ([11]; first compound 8 µM) was 0.357. It also gave a relative viability ([12]; first compound 0.253 µM) of 0.349, a relative viability ([12]; first compound 0.8 µM) of 0.431 and a relative viability ([12]; first compound 2.53 µM) of 0.409. For the same compound, the relative viability ([12]; first compound 8 µM) was 0.401, the relative viability ([13]; first compound 0.08 µM) was 0.484 and the relative viability ([13]; first compound 0.253 µM) was 0.454. For the same compound, the relative viability ([13]; first compound 0.8 µM) was 0.444, the relative viability ([13]; first compound 2.53 µM) was 0.447 and the relative viability ([13]; first compound 8 µM) was 0.427. For the same compound, the relative viability ([14]; first compound 0.08 µM) was 0.556, the relative viability ([14]; first compound 0.253 µM) was 0.605 and the relative viability ([14]; first compound 0.8 µM) was 0.454. The relative viability ([14]; first compound 2.53 µM) was 0.547, the relative viability ([14]; first compound 8 µM) was 0.553 and the relative viability ([15]; first compound 0.253 µM) was 0.509. It also gave a relative viability ([15]; first compound 0.8 µM) of 0.478, a relative viability ([15]; first compound 2.53 µM) of 0.482 and a relative viability ([15]; first compound 8 µM) of 0.382. For the same compound, the relative viability ([16]; first compound 0.08 µM) was 0.851, the relative viability ([16]; first compound 0.253 µM) was 0.852 and the relative viability ([16]; first compound 0.8 µM) was 0.878. For the same compound, the relative viability ([16]; first compound 2.53 µM) was 0.92, the relative viability ([16]; first compound 8 µM) was 1.09 and the relative viability ([17]; first compound 0.08 µM) was 0.331. It also gave a relative viability ([17]; first compound 0.253 µM) of 0.337, a relative viability ([17]; first compound 0.8 µM) of 0.325 and a relative viability ([17]; first compound 2.53 µM) of 0.35. The relative viability ([17]; first compound 8 µM) was 0.33, the relative viability ([18]; first compound 0.08 µM) was 0.593 and the relative viability ([18]; first compound 0.253 µM) was 0.445. It also gave a relative viability ([18]; first compound 0.8 µM) of 0.491, a relative viability ([18]; first compound 2.53 µM) of 0.447 and a relative viability ([18]; first compound 8 µM) of 0.344. For the same compound, the relative viability ([19]; first compound 0.08 µM) was 0.636, the relative viability ([19]; first compound 0.253 µM) was 0.614 and the relative viability ([19]; first compound 0.8 µM) was 0.694. It also gave a relative viability ([19]; first compound 2.53 µM) of 0.762, a relative viability ([19]; first compound 8 µM) of 0.569 and a relative viability ([20]; first compound 0.08 µM) of 0.323. For the same compound, the relative viability ([20]; first compound 0.253 µM) was 0.512, the relative viability ([20]; first compound 0.8 µM) was 0.439 and the relative viability ([20]; first compound 2.53 µM) was 0.385. It also gave a relative viability ([20]; first compound 8 µM) of 0.465, a relative viability ([21]; first compound 0.08 µM) of 0.292 and a relative viability ([21]; first compound 0.253 µM) of 0.324. It also gave a relative viability ([21]; first compound 0.8 µM) of 0.384, a relative viability ([21]; first compound 2.53 µM) of 0.356 and a relative viability ([21]; first compound 8 µM) of 0.396. For the same compound, the relative viability ([22]; first compound 0.08 µM) was 0.523, the relative viability ([22]; first compound 0.253 µM) was 0.588 and the relative viability ([22]; first compound 0.8 µM) was 0.514. For the same compound, the relative viability ([22]; first compound 2.53 µM) was 0.594, the relative viability ([22]; first compound 8 µM) was 0.573 and the relative viability ([23]; first compound 0.08 µM) was 0.611. It also gave a relative viability ([23]; first compound 0.253 µM) of 0.599, a relative viability ([23]; first compound 0.8 µM) of 0.601 and a relative viability ([23]; first compound 2.53 µM) of 0.605. It also gave a relative viability ([23]; first compound 8 µM) of 0.605.
